This assay deals with androgen receptor (androgen-induced PSA-luciferase activity in LNCaP cells). Description: Androgen-induced PSA (6.1 kb)-luciferase reporter assay in LNCaP cells. The class given is cell-based. The conditions noted are these: Homo sapiens; LNCaP cells transiently transfected with PSA (6.1 kb)-luciferase reporter; R1881 (1 nM), 24 h; normalized to maximum androgen-induced activity (vehicle only). The procedure:
To determine the IC50, treatments were normalized to the maximum activity with androgen-induction (in the absence of test compounds, vehicle only) (Table 1).
Luciferase Assay: Lysates were thawed on ice then collected into V-bottom 96-well tissue culture plates. Lysates were centrifuged at 4° C. for 5 minutes at 4000 rpm. To measure luminescence of LNCaP cell lysates the Firefly Luciferase Assay System (Promega) was employed, according to manufacturer's protocol.
Comparisons between treatment and control groups were compared using Two-Way ANOVA with post-hoc Dunnett's and Tukey's tests. Differences were considered statistically significant at P values less than 0.05. Densitometric quantification of relative AR levels was determined by Image.

`C[C@H](Oc1ccc(C(C)(C)c2cc(Cl)c(OCCCl)c(C#N)c2)cc1)c1ccnc(NS(C)(=O)=O)n1` [Example A170]: half-maximal inhibition (IC50) required 651 nM.

The values above are taken from patent US20230078913A1, “ANDROGEN RECEPTOR MODULATORS AND METHODS FOR USE AS PROTEOLYSIS TARGETING CHIMERA LIGANDS” (ESSA Pharma, Inc., priority 2019, published 2023).
